Holding throughout (type): in vivo
In assay [1] the test system is blackgrass (Alopecurus myosuroides). The experiment in a line: Test Example 1: foliar treatment, herbicidal activity. The following applies: foliar spray, 125 g/ha, 7 days after application. The method, then: (§1) A cylindrical plastic pot having a diameter of 10 cm and a depth of 10 cm was filled with soil and then seeded with Ivyleaf morningglory (Ipomoea hederacea), velvetleaf (Abutilon theophrasti), barnyardgrass (Echinochloa crus-galli) and blackgrass (Alopecurus myosuroides). These test plants were grown in a greenhouse for 9 days. Then, each of compounds 1-1,2-1, 3-1,3-2, 3-11 and 3-12 was formulated into an emulsifiable concentrate according to Formulation Example 2 and then diluted to the prescribed amount with water containing a spreading agent and the dilution was uniformly sprayed over the foliage of the test plants with a sprayer at a rate of 1000 liters per hectare After the application, the test plants were grown in the greenhouse for 7 days, and the herbicidal activity of the applied composition was determined.

Assay [2] relates to velvetleaf (Abutilon theophrasti). Described as above. The settings on record: foliar spray, 125 g/ha, 7 days after application. The method, then: as §1
Assay [3] concerns Ivyleaf morningglory (Ipomoea hederacea). The assay is described as above. The following applies: foliar spray, 125 g/ha, 7 days after application. The method, then: as §1
The test system of assay [4] is barnyardgrass (Echinochloa crus-galli). The assay is described as above. The settings on record: foliar spray, 125 g/ha, 7 days after application. How it is done:
as §1

Assay [5] has as its system velvetleaf (Abutilon theophrasti). Description: Test Example 2: soil surface treatment, herbicidal activity. The settings on record: sprayed over the surface of the soil, 500 g/ha, 7 days after application. From the text:
(§2) A cylindrical plastic pot having a diameter of 10 cm and a depth of 10 cm was filled with soil and then seeded with Ivyleaf morningglory (Ipomoea hederacea), velvetleaf (Abutilon theophrasti) and barnyardgrass (Echinochloa crus-galli). Then, each of the compounds 1-1,2-1 and 3-1 was formulated into an emulsifiable concentrate according to Formulation Example 2 and then diluted to the prescribed amount with water, and the dilution was uniformly sprayed over the surface of the soil with a sprayer at a rate of 1000 liters per hectare. After the application, the test plants were grown in the greenhouse for 7 days, and the herbicidal activity of the applied composition was examined.

The subject of assay [6] is Ivyleaf morningglory (Ipomoea hederacea). The assay is described as above. The following applies: sprayed over the surface of the soil, 500 g/ha, 7 days after application.
Source text: as §2

The subject of assay [7] is barnyardgrass (Echinochloa crus-galli). Described as above. The following applies: sprayed over the surface of the soil, 500 g/ha, 7 days after application.
Source text: as §2

For assay [8], the system named is common chickweed (Stellaria media). Description: Test Example 5: foliar treatment, herbicidal activity index. On the set-up: key: 0: no or little difference in the degree of germination or growth between the treated and the untreated tested plants at the time of examination; 10: the test plants died complete or their germination or growth was completely inhibited. The settings on record: foliar spray, 10 g/ha, 9 days after application, index 0 to 10. The method, then: A cylindrical plastic pot having a diameter of 18.5 cm and a depth of 15 cm was filled with soil and then seeded with common chickweed (Stellaria media). These test plants were grown in a greenhouse for 29 days. After then, each of the compound 1-2 and Compound A was formulated into an emulsifiable concentrate according to Formulation Example 2 and then diluted to the prescribed amount with water containing a spreading agent and the dilution was uniformly sprayed over the foliage of the test plants with a sprayer at a rate of 1000 liters per hectare. After the application, the test plants were grown in the greenhouse for 9 days, and the herbicidal activity was examined.

Assay [9] has as its system velvetleaf (Abutilon theophrasti). Description: Test Example 3: foliar treatment, herbicidal activity. The settings on record: foliar spray, 500 g/ha, 7 days after application. How it is done: (§3) A cylindrical plastic pot having a diameter of 10 cm and a depth of 10 cm was filled with soil and then seeded with Ivyleaf morningglory (Ipomoea hederacea), velvetleaf (Abutilon theophrasti) and barnyardgrass (Echinochloa crus-galli). These test plants were grown in a greenhouse for 9 days. After then, each of the compounds 3-16, 3-20 and 3-198 was formulated into an emulsifiable concentrate according to Formulation Example 2 and then diluted to the prescribed amount with water containing a spreading agent and the dilution was uniformly sprayed over the foliage of the test plants with a sprayer at a rate of 1000 liters per hectare. After the application, the test plants were grown in the greenhouse for 7 days, and the herbicidal activity was examined.

Assay [10] deals with Ivyleaf morningglory (Ipomoea hederacea). The assay is described as above. The settings on record: foliar spray, 500 g/ha, 7 days after application. How it is done: as §3
The subject of assay [11] is barnyardgrass (Echinochloa crus-galli). Described as above. The following applies: foliar spray, 500 g/ha, 7 days after application. The method, then: as §3
In assay [12] the test system is blackgrass (Alopecurus myosuroides). Description: Test Example 4: soil surface treatment, herbicidal activity. The following applies: sprayed over the surface of the soil, 2000 g/ha, 7 days after application.
Source text: as §2, with “theophrasti),” for “theophrasti) and”, “crus-galli) and blackgrass (Alopecurus myosuroides).” for “crus-galli).”, “3-2,3-11, 3-12, 3-16, 3-20” for “1-1,2-1”, “3-198” for “3-1”

For assay [13], the system named is velvetleaf (Abutilon theophrasti). The description is as above. The following applies: sprayed over the surface of the soil, 2000 g/ha, 7 days after application.
Source text: as §2, with “theophrasti),” for “theophrasti) and”, “crus-galli) and blackgrass (Alopecurus myosuroides).” for “crus-galli).”, “3-2,3-11, 3-12, 3-16, 3-20” for “1-1,2-1”, “3-198” for “3-1”

The subject of assay [14] is Ivyleaf morningglory (Ipomoea hederacea). The assay is described as above. The following applies: sprayed over the surface of the soil, 2000 g/ha, 7 days after application.
Source text: as §2, with “theophrasti),” for “theophrasti) and”, “crus-galli) and blackgrass (Alopecurus myosuroides).” for “crus-galli).”, “3-2,3-11, 3-12, 3-16, 3-20” for “1-1,2-1”, “3-198” for “3-1”

In assay [15] the test system is barnyardgrass (Echinochloa crus-galli). The description is as above. The following applies: sprayed over the surface of the soil, 2000 g/ha, 7 days after application.
Source text: as §2, with “theophrasti),” for “theophrasti) and”, “crus-galli) and blackgrass (Alopecurus myosuroides).” for “crus-galli).”, “3-2,3-11, 3-12, 3-16, 3-20” for “1-1,2-1”, “3-198” for “3-1”

As to `COC(=O)C(C)Oc1ccccc1Oc1cc(-n2c(=O)cc(C(F)(F)F)n(C)c2=O)c(F)cc1Cl` (centres unmarked) [Compound 3-1, methyl 2-[2-{2-chloro-4-fluoro-5-[3-methyl-2,6-dioxo-4-(trifluoromethyl)-1,2,3,6-tetrahydropyrimidin-1-yl]phenoxy}phenoxy]propionate], the growth of blackgrass result in assay [1] is listed as “completely controlled”. Moreover, the growth of velvetleaf result in assay [2] is “completely controlled”. The “growth of Ivyleaf morningglory” value in assay [3] is recorded as “completely controlled”. The growth of barnyardgrass entry in assay [4] is listed as “completely controlled”. Moreover, the emergence of velvetleaf result in [5] is recorded as “completely controlled”. In addition, in assay [6], the “emergence of Ivyleaf morningglory” value is “completely controlled”. Further, in assay [7], the emergence of barnyardgrass result is listed as “completely controlled”.
Take `CCOC(=O)C(C)Oc1ccc(Oc2cc(-n3c(=O)cc(C(F)(F)F)n(C)c3=O)c(F)cc2Cl)cc1` (centres unmarked) [Compound 1-2, ethyl 2-[4-{2-chloro-4-fluoro-5-[3-methyl-2,6-dioxo-4-(trifluoromethyl)-1,2,3,6-tetrahydropyrimidin-1-yl]phenoxy}phenoxy]propionate]: the Herbicidal activity in assay [8] came out at 10.
Take `CC(C)COC(=O)COc1ccccc1Oc1cc(-n2c(=O)cc(C(F)(F)F)n(C)c2=O)c(F)cc1Cl` [Compound 3-198, isobutyl [2-{2-chloro-4-fluoro-5-[3-methyl-2,6-dioxo-4-(trifluoromethyl)-1,2,3,6-tetrahydropyrimidin-1-yl]phenoxy}phenoxy]acetate]: the growth of velvetleaf entry in [9] was “completely controlled”. Further, the “growth of Ivyleaf morningglory” value in assay [10] is on record as “completely controlled”. Besides, in assay [11], the growth of barnyardgrass entry is “completely controlled”. The emergence of blackgrass entry in assay [12] is recorded as “completely controlled”. For the same molecule, the emergence of velvetleaf entry in assay [13] is on record as “completely controlled”. Moreover, the “emergence of Ivyleaf morningglory” value in assay [14] was “completely controlled”. The emergence of barnyardgrass result in assay [15] is “completely controlled”.
Regarding `COC(=O)C(C)Oc1ccc(Oc2cc(-n3c(=O)cc(C(F)(F)F)n(C)c3=O)c(F)cc2Cl)cc1` (centres unmarked) [Compound 1-1, methyl 2-[4-{2-chloro-4-fluoro-5-[3-methyl-2,6-dioxo-4-(trifluoromethyl)-1,2,3,6-tetrahydropyrimidin-1-yl]phenoxy}phenoxy]propionate], the growth of blackgrass entry in [1] was “completely controlled”. In addition, the growth of velvetleaf entry in [2] is listed as “completely controlled”. In addition, the “growth of Ivyleaf morningglory” value in assay [3] was “completely controlled”. The growth of barnyardgrass entry in assay [4] was “completely controlled”. Besides, the emergence of velvetleaf result in assay [5] is recorded as “completely controlled”. Also, the “emergence of Ivyleaf morningglory” value in assay [6] was “completely controlled”. Besides, the emergence of barnyardgrass result in assay [7] was “completely controlled”.
Regarding `C=CCOC(=O)COc1ccccc1Oc1cc(-n2c(=O)cc(C(F)(F)F)n(C)c2=O)c(F)cc1Cl` [Compound 3-20, allyl [2-{2-chloro-4-fluoro-5-[3-methyl-2,6-dioxo-4-(trifluoromethyl)-1,2,3,6-tetrahydropyrimidin-1-yl]phenoxy}phenoxy]acetate], the growth of velvetleaf result in assay [9] is “completely controlled”. For the same molecule, the “growth of Ivyleaf morningglory” value in assay [10] is recorded as “completely controlled”. Also, the growth of barnyardgrass entry in assay [11] is reported as “completely controlled”. Also, in assay [12], the emergence of blackgrass entry was “completely controlled”. For the same molecule, the emergence of velvetleaf result in assay [13] is “completely controlled”. Further, in assay [14], the “emergence of Ivyleaf morningglory” value is “completely controlled”. Besides, in assay [15], the emergence of barnyardgrass entry is reported as “completely controlled”.
For the molecule `Cn1c(C(F)(F)F)cc(=O)n(-c2cc(Oc3ccccc3OCC(=O)OC(C)(C)C)c(Cl)cc2F)c1=O` [Compound 3-16], the growth of velvetleaf entry in [9] is listed as “completely controlled”. In addition, the “growth of Ivyleaf morningglory” value in assay [10] is on record as “completely controlled”. Further, the growth of barnyardgrass result in assay [11] is given as “completely controlled”. In addition, in [12], the emergence of blackgrass result was “completely controlled”. Moreover, in assay [13], the emergence of velvetleaf result is “completely controlled”. The “emergence of Ivyleaf morningglory” value in [14] was “completely controlled”. The emergence of barnyardgrass entry in assay [15] is “completely controlled”.
For `CCOC(=O)C(C)Oc1ccc(Oc2cc(-n3c(=O)cc(C(F)(F)F)n(N)c3=O)c(F)cc2Cl)cc1` (centres unmarked) [Compound A, reference compound], the Herbicidal activity in assay [8] came to 5.
As to `COC(=O)C(C)Oc1cccc(Oc2cc(-n3c(=O)cc(C(F)(F)F)n(C)c3=O)c(F)cc2Cl)c1` (centres unmarked) [Compound 2-1, methyl 2-[3-{2-chloro-4-fluoro-5-[3-methyl-2,6-dioxo-4-(trifluoromethyl)-1,2,3,6-tetrahydropyrimidin-1-yl]phenoxy}phenoxy]propionate], the growth of blackgrass result in [1] was “completely controlled”. Also, the growth of velvetleaf entry in [2] is “completely controlled”. Moreover, the “growth of Ivyleaf morningglory” value in [3] is reported as “completely controlled”. In [4], the growth of barnyardgrass entry is “completely controlled”. The emergence of velvetleaf result in assay [5] is recorded as “completely controlled”. Besides, the “emergence of Ivyleaf morningglory” value in [6] is given as “completely controlled”. In assay [7], the emergence of barnyardgrass entry was “completely controlled”.

For the origin of these results see US6667413B2, “Uracil compounds and use thereof” (Sumitomo Chemical Company, Limited, priority 1999, dated 2003).
